Laboratory results: US20190330290A1, “PHARMACEUTICAL ASSOCIATION OF GROWTH FACTOR RECEPTOR AGONIST AND ADHESION PROTEIN INHIBITOR FOR CONVERTING A NEOPLASTIC CELL INTO A NON-NEOPLASTIC CELL AND USES THEREOF” (HISTIDE AG, priority 2015, published 2019)
Where no end group is shown, it is not given here.

Experiments:
pRB = pRB phosphorylation level, immunofluorescence staining quantified with ImageJ; assay type: cell-based, human
Procedure: (§1) The cells were first fixed for 20 min with 4% paraformaldehyde/PBS at 4° C. After fixation, the cells were permeabilized in PBS containing 1% Triton X-100 for 15 min. Protein immunofluorescent visualization was performed by first treating the cells with 1% (v/v) specific monoclonal antibodies for 1 hour at 37° C. Then the samples were incubated with Alexa fluor® 568 or 647 (F(ab′)2 fragment of IgG(H+L)) during 30 min at room temperature. The cell nuclei were counterstained in 20 ng/mL DAPI for 10 min at room temperature.
(§2) For this type of quantification the freeware image analysis ImageJ® software was used. The raw image was first converted to an 8-bit file, and then the unsharp mask feature was used (settings 1:0.2) to remove the image background (rolling ball radius 10). After smoothing, the resulting image, which appears similar to the original photomicrograph but with minimal background, was then converted to a binary image by setting a threshold. Threshold values were determined empirically by selecting a setting, which gave the most accurate binary image for a subset of randomly selected photomicrographs. The cell area was determined by manual delineation on raw fluorescent images. Total contact area and mean contact area per cell were calculated by “analyse particules” in ImageJ®. A minimum of 50 cells per condition were analyzed.
(§3) Neoplastic cells (in this example osteosarcoma cells) were cultured in the presence of pharmaceutical associations of the invention. A rapid (24 hours) decrease of the tumor markers was observed (FIG. 5). The adhesion checkpoint then activates the tumor suppressor proteins p53 and pRB.
(§4) The alginate used in these experiments was the Ultra Pure Sodium alginate powder PRONOVA UP MVG from Novamatrix (FMC Biopolymers, cat. no. 4200106). To a 1% MillQ water (1 g per 100 mL) alginate solution were added the cyclic GFR-binding peptide and the SiRNA molecules. The resulting mixture was then added to the cell cultures for 48 h.

p53 = p53 protein expression level, immunofluorescence staining quantified with ImageJ; assay type: cell-based, human; details: MG63 cells; alginate matrix with cyclic GFR-binding peptide + SiRNA Integrin alpha 3 + SiRNA Integrin beta 1; 48 h; 400 ng/mL GFR-binding compound
Procedure: as §1, §2, §3, §4

[1] = MG63 cells, alginate matrix with cyclic GFR-binding peptide + SiRNA Integrin alpha 3 + SiRNA Integrin beta 1, 48 h, 400 ng/mL GFR-binding compound
[2] = human osteosarcoma cells, MG63, pharmaceutical association containing the GFR-binding compound (Table 6)

Row | Sequence | pRB (%) (pRB; [1]) | P53 (%) (p53) | pRB (%) (pRB; [2])
1 | GGGGGGGGGDENEKVVGIPEPSSAPVDLKPLSTLYVDENEKVV (also: cyclic (mode not given here)) [SEQ ID NO: 4720] | 9% | 38% | –
2 | GGGGGGGGGDENEKVVKIPKASSTQVRLRPVQIRKIDAANNVV (also: cyclic (mode not given here)) [SEQ ID NO: 4724] | 7% | 47% | –
3 | GGGGGGGGGDENEKVVRVPSTSSTQVKMSAISMLYLDENEKVV (also: cyclic (mode not given here)) [SEQ ID NO: 4726] | 10% | 32% | –
4 | GGGGGGGGGDENEKVVSTPPTSSVPTEVSPINTLYFDENEKVV (also: cyclic (mode not given here)) [SEQ ID NO: 4733] | 17% | 38% | –
5 | GGGGGGGGGDDSSNVIGIPEPSSAPTRLEPISMLYLDENEKVV (also: cyclic (mode not given here)) [SEQ ID NO: 4731] | 8% | 40% | –
6 | GGGGGGGGGDDSSNVIRVPSTSSVPTGQSAISTLYLDDSSNVI (also: cyclic (mode not given here)) [SEQ ID NO: 4718] | 10% | 40% | –
7 | GGGGGGGGGDENEKVVNDEGLESVPEDLSSLSVLFFDENEKVV (also: cyclic (mode not given here)) [SEQ ID NO: 4717] | 12% | 42% | –
8 | AAAAAAAAADENEKVVRVPSTSSVPAEESNITVQIMDDSSNVI (also: cyclic (mode not given here)) [SEQ ID NO: 4738] | 16% | 55% | –
9 | SIPKASSTPTELSPINMLYF (Non-cyclic GFR-binding peptide) [SEQ ID NO: 54] | – | – | 23%
10 | GGGGGGGGGFDNDENVVSTPPTSSTPTKMSNITTQIMFDNDENVV (also: cyclic (mode not given here)) [SEQ ID NO: 4737] | 18% | 53% | –
11 | NDEGLESVPTEERSVKVAKV (Non-cyclic GFR-binding peptide) [SEQ ID NO: 63] | – | – | 22%
12 | ASASPSSVSQDLSSLSILFF (Non-cyclic GFR-binding peptide) [SEQ ID NO: 58] | – | – | 15%
13 | GGGGGGGGGFDNDENVVAASKASSVPQRLRSVKVAKVFDNDENVV (also: cyclic (mode not given here)) [SEQ ID NO: 4739] | 14% | 51% | –
14 | AAAAAAAAADAANNVVKIPKASSTQVRLRSVKTAKVDAANNVV (also: cyclic) [SEQ ID NO: 4740] | 15% | 52% | –
15 | GGGGGGGGGDENEKVVKIPKASSVSQQLEPISTLYLDENEKVV (also: cyclic (mode not given here)) [SEQ ID NO: 4732] | 9% | 42% | –
16 | GGGGGGGGGDDSSNVISTPPTSSVSQKMKPLSILYVDDSSNVI (also: cyclic (mode not given here)) [SEQ ID NO: 4735] | 8% | 51% | –
17 | AAAAAAAAADENEKVVKIPKASSVPTKMKPLSVLYVDDSSNVI (also: cyclic (mode not given here)) [SEQ ID NO: 4734] | 12% | 50% | –

Row | Sequence | pRB (%) (pRB; [1]) | P53 (%) (p53) | pRB (%) (pRB; [2])
18 | AAAAAAAAADENEKVVAASKASSVPQEEEPLPMVYYDAANNVV (also: cyclic) [SEQ ID NO: 4721] | 12% | 39% | –
19 | AAAAAAAAADENEKVVAASKASSVPEKMRPVQTRKIDDSSNVI (also: cyclic) [SEQ ID NO: 4741] | 15% | 49% | –
20 | GGGGGGGGGDDSSNVIKIPKASSVPTGGSNITVQIMDDSSNVI (also: cyclic (mode not given here)) [SEQ ID NO: 4722] | 17% | 51% | –
21 | AAAAAAAAADAANNVVKIPKASSSRVRLSSLSTLFFDAANNVV (also: cyclic) [SEQ ID NO: 4727] | 11% | 32% | –
22 | SSVKSQPSRVHHSPISILFI (Non-cyclic GFR-binding peptide) [SEQ ID NO: 57] | – | – | 17%
23 | GGGGGGGGGFDNDENVVGIPEPSSAPVDMRPVQIRKIFDNDENVV (also: cyclic (mode not given here)) [SEQ ID NO: 4742] | 14% | 46% | –
24 | AAAAAAAAADENEKVVAASKASSSRVELRSVKIAKVDDSSNVI (also: cyclic) [SEQ ID NO: 4723] | 8% | 50% | –
25 | NDEGLESVPTEESAISMLYL (Non-cyclic GFR-binding peptide) [SEQ ID NO: 56] | – | – | 18%
26 | GGGGGGGGGFDNDENVVRVPSTSSVPEKMEPLTMLYYFDNDENVV (also: cyclic (mode not given here)) [SEQ ID NO: 4736] | 9% | 47% | –
27 | GGGGGGGGGDDSSNVISTPPTSSSRVQLSAISMLYLDDSSNVI (also: cyclic (mode not given here)) [SEQ ID NO: 4725] | 6% | 29% | –
28 | GGGGGGGGGDENEKVVRVPSTSSTQVDLNAISVLYFDENEKVV (also: cyclic (mode not given here)) [SEQ ID NO: 4729] | 13% | 38% | –
29 | GGGGGGGGGDDSSNVIRVPSTSSAPTKMNAISMLYFDENEKVV (also: cyclic (mode not given here)) [SEQ ID NO: 4719] | 15% | 44% | –
30 | GGGGGGGGGDDSSNVIAASKASSTPTDLNAISTLYFDDSSNVI (also: cyclic (mode not given here)) [SEQ ID NO: 4728] | 15% | 33% | –
31 | AAAAAAAAADAANNVVGIPEPSSVSQELSATSMLYYDAANNVV (also: cyclic) [SEQ ID NO: 4730] | 10% | 37% | –
32 | VVPKPSSAPTQLEPISILYL (Non-cyclic GFR-binding peptide) [SEQ ID NO: 59] | – | – | 21%
33 | SSVKSQPSRVHHKPLSMLYV (Non-cyclic GFR-binding peptide) [SEQ ID NO: 62] | – | – | 18%
